Measured values taken from patent US20160256535A1, “HEXAPEPTIDE AND USES THEREOF” (priority 2013, published 2016).
Primed or numbered codes have the meaning given here. No end group written: not given here. FITC′ = not defined here

How the values were obtained:
cells = assay: Ability of hexapeptide conjugated to fluorescein to enter cells (immunocytochemistry); format: cell-based; details: immunocytochemistry examination
Description: The test results are positive and confirms the previous data.

Jurkat cells = assay: Jurkat cell penetration, immunofluorescence; format: cell-based, human; details: 92 μM, 3 h
Protocol: Jurkat cells (ATTC, UK) were seeded at density of 150000 cells/well in RPMI media supplemented with 1% Penstrep and 10% FBS in a humidified atmosphere containing 5% CO2 at 37°. The next day, the cells were incubated with 92 μM AVCGTG (SEQ ID NO. 1)-FITC for 3 h in multiwell 24. Subsequently, a cytospin was used to smear cells onto slides. The smears were fixed with 4% paraformaldehyde/PBS for 10 min and rinsed twice with 1×PBS containing 0.1% Triton to remove traces of fixative. Cell samples without AVCGTG (SEQ ID NO. 1)-FITC were used for the background control. After blocking solution with 5% NGS (Normal Goat Serum, VECTOR) 1×PBS+0,1% Triton X-100, was added for 30 minutes. After removing the blocking solution, cells were incubated with primary antibody hexapeptide, diluted 1:200 in blocking solution, overnight at 4° C. The following day, after washing with lx PBS and 0.1% Triton X-100 for 10 minutes, secondary antibody (ALEXA FLUO 488A, SANTACRUZ) diluted 1:400 with 1×PBS and 0.1% Triton X-100 for 2 h was added. The excess of antibody was removed with 3 washes with 1×PBS.
Nuclei were stained with DAPI (1 μg/mL). The slides were mounted and stored in the dark at 4° C. and then observed by fluorescence microscope ZEISS HB050 by using the software Axion Vision Re1.4.8.

white blood cells = assay: White blood cell penetration, immunocytochemistry at light microscopy; format: cell-based, human; details: healthy subject
Protocol: (§1) Lymphocytes were incubated for five hours in the presence of fluorescinated Hexapeptide 92 μM. A cytospin was used to smear cells onto slides. The smears were fixed in Zamboni solution (4% paraformaldehyde, 15% picric acid) for 60 minutes and then washed with 1×PBS and incubated for five minutes with 3% hydrogen peroxide to quench endogenous peroxidase activity. Immunostaining was performed using the DAKO LSA+System HRP kit. Rabbit anti-rMnSOD-Lp (1:200), was incubated on slides for 30 minutes, followed by incubation with the biotinylated secondary antibody for 30 minutes and peroxidase-labeled streptavidin for 30 minutes. To complete the reaction, a substrate-chromogen solution was used. The smears were counterstained with hematoxylin.

Human Normal Lymphocytes = assay: Lymphocyte penetration, immunocytochemistry / immunofluorescence; format: cell-based
Protocol: Human Normal Lymphocytes cells were collected from healthy donors and purified using Ficoll Hystopaque density gradient centrifugation. The cells were cultured at a density of 1×10^6 cells/mL in RPMI media supplemented with 1% Penstrep and 10% FBS in a humidified atmosphere containing 5% CO2 at 37° C.
as §1, with “A” for “Lymphocytes were incubated for five hours in the presence of fluorescinated Hexapeptide 92 μM. A”

MCF-7 cells = assay: Internalization of fluoresceinated hexapeptide by confocal and fluorescence microscopy; format: cell-based, human; details: for internalization by confocal microscopy: 0.125 μM, 3 hr
Protocol: The confocal analysis was performed by placing the cells of human breast cancer (MCF-7, ATCC HTB-22) on suitable slides (MatTek, Ashland Corporation MA, U.S.). The hexapaptide to the concentration of 0.125 μM was then added to the cells.
The protocol used for the internalization of the PEP-6 FAM includes two separate experiments. A first experiment was done using PEP 6-FAM to 92 μM for 3 hr and the internalization was assessed. To these cells, already treated with PEP6-FAM, primary Ab anti-PEP 24 1:20 overnight at 4° C. was added and, as secondary antibody goat anti rabbit fluorescent CF 488A; and to 1 plate, already treated with PEP6 FAM, it was added the primary antibody anti rMnSOD 1:20 overnight and the secondary CF555 rodamynated donkey anti sheep. For 45 min-1 hr.
In the second experiment, the PEP 6-FAM was used at 92 μM to 1 hr and 3 hr with fixation in ethanol and paraformaldehyde, and for both times it was assessed the penetration alone, without the addition of the antibody and with the addition of primary antibody anti rMnSOD with three different dilutions (1500-1:1000-1:2000) in 5% NGS (Normal Goat Serum) in PBS +0.1% Triton overnight at 4° C. and, the secondary antibody anti rhodium CF 555 sheep 1:400 for 45′-1 hr. The nuclei were subsequently stained with 10 μg for ml^−1 DAPI (4′,6-diamidin-2-phenylindole, LIFE™ Thencologies).

sperm = assay: Sperm fluorescence microscopy with propidium iodide; format: cell-based, bovine; details: 1 mg/ml, 37° C., 1 hour; sperm without red (propidium iodide) fluorescence
Protocol: Three fresh ejaculate from bovine, obtained from two different bulls, were mixed and diluted in Tris solution with a concentration of 100×10^6 sperm/ml, incubated at 37° C. for 1 hour in the presence of 1 mg/ml of FITC-rMnSOD-LP (hexapeptide) and 1 mg/ml of propidium iodide.
The peptide also enters in the sperm with a non-intact membrane. These sperm must not to be taken into consideration in the penetration study because if the membrane is broken, its permeability is not selective. The hexapeptide enters even in the dead, but for normal diffusion, not for selective activity of intact membranes.

Substance: AVCGTG (SEQ ID NO. 1)-FITC (AVCGTG-{FITC′})
- penetration into the cells (cells): penetrates into the cells
- penetration into Jurkat cells (Jurkat cells): penetrates in Jurkat cells
- penetration into white blood cells (white blood cells): penetrates in white blood cells
- internalization in lymphocytes (Human Normal Lymphocytes; 3 hour incubation): most cells internalized
- percentage of labeled cells (Human Normal Lymphocytes; lymphocytes, 92 μM, 3 hours): 95%
- penetration by fluorescence optical microscopy (MCF-7 cells): penetrates into the MCF-7 breast cancer cells
- internalization by confocal microscopy (MCF-7 cells; listed as FITC-PEP): internalized into the cytoplasm
- internalization by confocal microscopy (MCF-7 cells; listed as FTC-peptide): internalized in the cytoplasm
- viable sperm showing green fluorescence in the mid piece of the tail (sperm): 100%
